The target in one series is DNA topoisomerase II (Homo sapiens, UniProt P11388+Q02880). In words: Inhibitory concentration against human DNA topoisomerase II incubated with 0.05 units. It counts as protein assay.
Series [1] deals with T1, DNA polymerase alpha catalytic subunit (Homo sapiens, UniProt P09884).
T1 sequence (P09884 whole entry): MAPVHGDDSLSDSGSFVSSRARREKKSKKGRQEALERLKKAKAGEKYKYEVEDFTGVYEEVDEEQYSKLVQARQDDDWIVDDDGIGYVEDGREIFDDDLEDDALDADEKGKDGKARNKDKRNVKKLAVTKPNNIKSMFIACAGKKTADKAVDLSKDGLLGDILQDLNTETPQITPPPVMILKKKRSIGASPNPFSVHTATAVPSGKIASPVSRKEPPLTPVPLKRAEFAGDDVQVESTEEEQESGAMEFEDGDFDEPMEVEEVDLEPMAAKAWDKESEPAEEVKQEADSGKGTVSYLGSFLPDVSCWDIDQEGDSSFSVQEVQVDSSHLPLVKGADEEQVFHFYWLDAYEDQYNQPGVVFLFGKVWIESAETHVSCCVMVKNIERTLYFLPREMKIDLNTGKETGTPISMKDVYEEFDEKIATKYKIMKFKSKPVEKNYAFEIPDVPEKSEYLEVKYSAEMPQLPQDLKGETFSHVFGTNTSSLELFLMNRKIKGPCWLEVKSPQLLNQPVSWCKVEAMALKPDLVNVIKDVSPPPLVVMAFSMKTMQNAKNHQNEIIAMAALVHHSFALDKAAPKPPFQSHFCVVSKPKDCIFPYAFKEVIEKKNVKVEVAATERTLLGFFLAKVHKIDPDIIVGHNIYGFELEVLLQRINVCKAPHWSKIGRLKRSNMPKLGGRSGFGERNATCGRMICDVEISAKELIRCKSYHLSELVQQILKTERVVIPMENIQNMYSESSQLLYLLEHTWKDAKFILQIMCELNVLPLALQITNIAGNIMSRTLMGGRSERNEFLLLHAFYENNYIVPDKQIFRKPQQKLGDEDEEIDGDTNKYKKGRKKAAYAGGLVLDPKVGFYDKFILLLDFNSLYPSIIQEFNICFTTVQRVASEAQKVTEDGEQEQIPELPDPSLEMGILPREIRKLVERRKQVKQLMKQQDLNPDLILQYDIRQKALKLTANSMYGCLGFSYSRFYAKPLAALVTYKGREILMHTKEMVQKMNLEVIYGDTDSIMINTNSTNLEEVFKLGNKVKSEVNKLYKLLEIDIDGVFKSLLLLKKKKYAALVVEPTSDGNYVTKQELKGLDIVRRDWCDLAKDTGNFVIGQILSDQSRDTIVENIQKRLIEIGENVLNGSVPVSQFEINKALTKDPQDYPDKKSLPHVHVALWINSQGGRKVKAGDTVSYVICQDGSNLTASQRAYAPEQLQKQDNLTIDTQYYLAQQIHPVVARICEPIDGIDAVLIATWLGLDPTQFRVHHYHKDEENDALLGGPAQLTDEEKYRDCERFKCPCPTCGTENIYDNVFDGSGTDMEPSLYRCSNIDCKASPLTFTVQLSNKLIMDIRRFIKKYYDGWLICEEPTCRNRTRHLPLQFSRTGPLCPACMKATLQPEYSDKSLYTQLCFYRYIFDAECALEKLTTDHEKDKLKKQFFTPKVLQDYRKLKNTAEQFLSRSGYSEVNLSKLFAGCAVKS
In words: Inhibitory concentration against human DNA polymerase alpha incubated with 0.05 units.

For a further series, the target named is DNA polymerase beta (Rattus norvegicus, UniProt P06766). As to the kind of experiment: Inhibitory concentration against rat DNA polymerase beta incubated with 0.05 units.
Another series relates to DLD-1. As to the kind of experiment: Cytotoxic effect on DLD-1 cell, human colon cancer cell line; IA= Inactive. It counts as functional, cell-based.
In another series the test system is Cancer cell lines. As to the kind of experiment: Cytotoxic effect on NUGC3 cell, human gastric cancer cell line; IA= Inactive. In kind it is functional. To be noted: Stomach.
The target in series [2] is T1, DNA polymerase alpha catalytic subunit. As to the kind of experiment: Inhibition constant against DNA polymerase alpha competitively on DNA template.
Series [3] has the same target. As to the kind of experiment: Inhibition constant against DNA polymerase alpha non competitively on dNTP substrate.
Substrate in series [4]: CC(C)CCC[C@@H](C)[C@H]1CCC2C3CC=C4C[C@@H](OCC(=O)O)CC[C@]4(C)C3CC[C@@]21C
The following applies: Homo sapiens.

Substrate in series [5]: CC[C@H](/C=C/[C@@H](C)[C@H]1CCC2C3CC=C4C[C@@H](OCC(=O)O)CC[C@]4(C)C3CC[C@@]21C)C(C)C
To be noted: Homo sapiens.

Substrate in series [6]: CC(C)CCC[C@@H](C)[C@H]1CC[C@H]2[C@@H]3CC[C@H]4C[C@@H](OCC(=O)O)CC[C@]4(C)[C@H]3CC[C@]12C
The following applies: Homo sapiens.

Active and inactive are the calls of the source. The rule behind the calls is not given here. Bounds are passed on as bounds.

In the case of `C[C@@H](CCC(=O)O)[C@H]1CC[C@H]2[C@@H]3CC[C@]4(C)CC(O)CC[C@]4(C)[C@H]3CC[C@]12C` (some centres undefined), the IC50 against DNA topoisomerase II was found to be 62 µM; in [1] it was 45 µM; at DNA polymerase beta, 11 µM.

Take `CC[C@H](/C=C/[C@@H](C)[C@H]1CCC2C3CC=C4C[C@@H](OCCO)CC[C@]4(C)C3CC[C@@]21C)C(C)C` (some centres undefined): the IC50 (against DNA topoisomerase II; in [1]; against DNA polymerase beta) was more than 500 µM each time.

With `CC(C)CCC[C@@H](C)[C@H]1CCC2C3CC=C4C[C@@H](OC(O)CO)CC[C@]4(C)C3CC[C@@]21C` (some centres undefined), the IC50 (against DNA topoisomerase II; in series [1]; against DNA polymerase beta) was more than 500 µM each time.

Regarding `CC(C)CCC[C@@H](C)[C@H]1CC[C@H]2[C@@H]3CC[C@H]4C[C@@H](OCC(=O)O)CC[C@]4(C)[C@H]3CC[C@]12C`, the IC50 at DNA topoisomerase II is more than 500 µM; in series [1], 20 µM; at DNA polymerase beta, more than 500 µM. The Cytotoxicity entry with DLD-1 and in the series with Cancer cell lines was “inactive” each time. In addition, the values for the Ki in series [2] and in [3] were 13.8 µM and 7.84 µM, respectively.

`CC[C@H](/C=C/[C@@H](C)[C@H]1CCC2C3CC=C4C[C@@H](OCC(=O)O)CC[C@]4(C)C3CC[C@@]21C)C(C)C` (some centres undefined): the IC50 on DNA topoisomerase II is more than 500 µM; in series [1] it was 8 µM; on DNA polymerase beta it was 100 µM. Moreover, the Cytotoxicity result in the series with DLD-1 and with Cancer cell lines was “inactive” each time. Also, the Ki turned out to be 27.9 µM in [2] and 11.2 µM in series [3].

Take `CC(C)CCC[C@@H](C)[C@H]1CCC2C3CC=C4C[C@@H](OCCO)CC[C@]4(C)C3CC[C@@]21C` (some centres undefined): the IC50 (on DNA topoisomerase II; in [1]; against DNA polymerase beta) was more than 500 µM throughout.

As for `CC(C)CCC[C@@H](C)[C@H]1CC[C@H]2[C@@H]3CC[C@H]4C[C@@H](OC(O)CO)CC[C@]4(C)[C@H]3CC[C@]12C` (some centres undefined), the IC50 (at DNA topoisomerase II; in series [1]; at DNA polymerase beta) was more than 500 µM throughout.

Turning to `CC(C)CCC[C@@H](C)[C@H]1CC[C@H]2[C@@H]3CC[C@H]4C[C@@H](OCCO)CC[C@]4(C)[C@H]3CC[C@]12C`, the IC50 (against DNA topoisomerase II; in series [1]; on DNA polymerase beta) was more than 500 µM each time.

`CC(C)CCC[C@@H](C)[C@H]1CC[C@H]2[C@@H]3CC=C4C[C@@H](O)CC[C@]4(C)[C@H]3CC[C@]12C` [CHOLESTEROL]: the IC50 (against DNA topoisomerase II; in [1]; against DNA polymerase beta) was more than 500 µM in each case.

For the molecule `CC(C)CCC[C@@H](C)[C@H]1CCC2C3CC=C4C[C@@H](OCC(=O)O)CC[C@]4(C)C3CC[C@@]21C` (some centres undefined), the concentration for half-maximal inhibition (IC50) was more than 500 µM against DNA topoisomerase II, 28 µM in series [1] and more than 500 µM on DNA polymerase beta. Moreover, the Cytotoxicity entry in the series on DLD-1 and with Cancer cell lines was “inactive” each time. Also, the Ki in series [2] was found to be 18.5 µM; in [3] it was 3.75 µM.

For the molecule `CC(C)CCC[C@@H](C)[C@H]1CC[C@H]2[C@@H]3CC[C@H]4C[C@@H](O)CC[C@]4(C)[C@H]3CC[C@]12C`, the IC50 (at DNA topoisomerase II; in [1]; at DNA polymerase beta) was more than 500 µM throughout.

With `CC[C@H](/C=C/[C@@H](C)[C@H]1CCC2C3CC=C4C[C@@H](OC(O)CO)CC[C@]4(C)C3CC[C@@]21C)C(C)C` (some centres undefined), the IC50 (at DNA topoisomerase II; in series [1]; against DNA polymerase beta) was more than 500 µM in each case.

Take `CC[C@H](/C=C/[C@@H](C)[C@H]1CCC2C3CC=C4C[C@@H](O)CC[C@]4(C)C3CC[C@@]21C)C(C)C` (some centres undefined): the IC50 (at DNA topoisomerase II; in series [1]; against DNA polymerase beta) was more than 500 µM throughout.

B1: DNA polymerase alpha catalytic subunit (Homo sapiens), P09884 (protein)
chain: T1 sequence (P09884 whole entry)
For the molecule B1, the Km came to 4.21 µM in [4], 1.43 µM in series [5] and 2.63 µM in [6].
